Experimental data published in patent publication US8501936B2 (priority 2009, dated 2013).

How the values were obtained:
human JAK2 = human JAK2 (Homo sapiens (Human), UniProt O60674); details: read-out: JAK2 IC50
human FAK = human FAK (Homo sapiens (Human), UniProt Q05397); details: read-out: FAK IC50
Chain of human FAK (Q05397 whole entry): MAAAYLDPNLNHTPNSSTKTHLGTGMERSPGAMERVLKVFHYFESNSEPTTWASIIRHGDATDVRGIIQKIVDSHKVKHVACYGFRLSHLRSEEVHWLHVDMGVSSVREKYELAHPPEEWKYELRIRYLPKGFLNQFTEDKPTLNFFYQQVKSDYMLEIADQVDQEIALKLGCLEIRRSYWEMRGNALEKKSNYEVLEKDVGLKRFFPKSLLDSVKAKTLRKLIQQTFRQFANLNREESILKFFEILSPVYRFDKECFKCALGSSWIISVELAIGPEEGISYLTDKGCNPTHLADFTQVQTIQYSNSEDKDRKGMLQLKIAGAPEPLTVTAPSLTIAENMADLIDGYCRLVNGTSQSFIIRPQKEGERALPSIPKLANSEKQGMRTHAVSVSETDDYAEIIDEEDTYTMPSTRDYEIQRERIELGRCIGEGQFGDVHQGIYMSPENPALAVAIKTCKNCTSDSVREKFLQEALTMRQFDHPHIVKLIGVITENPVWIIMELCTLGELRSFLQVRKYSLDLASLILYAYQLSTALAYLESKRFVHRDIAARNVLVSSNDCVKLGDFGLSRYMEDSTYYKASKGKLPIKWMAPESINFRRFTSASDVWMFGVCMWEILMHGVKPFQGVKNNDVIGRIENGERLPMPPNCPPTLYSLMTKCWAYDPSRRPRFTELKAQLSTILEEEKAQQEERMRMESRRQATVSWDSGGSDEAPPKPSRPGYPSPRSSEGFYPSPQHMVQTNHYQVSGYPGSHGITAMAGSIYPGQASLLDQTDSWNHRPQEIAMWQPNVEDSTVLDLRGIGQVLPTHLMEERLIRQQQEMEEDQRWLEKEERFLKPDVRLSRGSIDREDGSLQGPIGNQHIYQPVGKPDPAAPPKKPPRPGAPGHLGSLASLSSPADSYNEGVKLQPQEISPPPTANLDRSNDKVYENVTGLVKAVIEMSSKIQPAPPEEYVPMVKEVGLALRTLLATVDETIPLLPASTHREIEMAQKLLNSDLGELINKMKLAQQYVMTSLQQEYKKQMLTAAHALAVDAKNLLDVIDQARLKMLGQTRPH

Chain of human JAK2 (O60674 815-1132): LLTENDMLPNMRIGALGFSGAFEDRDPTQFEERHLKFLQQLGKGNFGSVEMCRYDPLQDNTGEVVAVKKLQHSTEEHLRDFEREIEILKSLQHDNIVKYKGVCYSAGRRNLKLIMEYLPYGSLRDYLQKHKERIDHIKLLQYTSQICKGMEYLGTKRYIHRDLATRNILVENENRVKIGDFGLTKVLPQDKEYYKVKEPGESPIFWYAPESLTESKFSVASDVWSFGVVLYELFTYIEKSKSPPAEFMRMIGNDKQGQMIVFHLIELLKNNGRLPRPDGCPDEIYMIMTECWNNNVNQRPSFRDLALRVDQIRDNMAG

| Compound | IC50 (human JAK2) | IC50 (human FAK) |
| --- | --- | --- |
| COc1ccc(C(F)(F)F)cc1-c1cccc2nc(Nc3ccc4c(c3)CCNCC4)nn12 [Example 234, [5-(2-Methoxy-5-trifluoromethyl-phenyl)-[1,2,4]triazolo[1,5-a]pyridine-2-yl]-(2,3,4,5-tetrahydro-1H-benzo[d]azepin-7-yl)-amine] | 0.0234 µM | 0.547 µM |
| COc1ccc(C(F)(F)F)cc1-c1cccc2nc(Nc3ccc4c(c3)CCN(CCSC)CC4)nn12 [Example 235, [5-(2-Methoxy-5-trifluoromethyl-phenyl)-[1,2,4]triazolo[1,5-a]pyridin-2-yl]-(3-(2-methylsulfanyl-ethyl)-2,3,4,5-tetrahydro-1H-3-benzazepin-7-yl]-amine] | 0.0267 µM | 0.135 µM |
| COc1ccc(C(F)(F)F)cc1-c1cccc2nc(Nc3ccc4c(c3)CCN(CC(=O)N(C)C)CC4)nn12 [Example 237] | 0.0539 µM | 0.714 µM |
| CCOc1ccccc1-c1cccn2nc(Nc3ccc4c(c3)CCN(CCS(C)(=O)=O)CC4)nc12 [Example 245] | 0.07 µM | 10 µM |
| CCOc1ccccc1-c1cccn2nc(Nc3ccc4c(c3)CCN(CC(=O)N(C)C)CC4)nc12 [Example 246] | 0.212 µM | 10 µM |
| CS(=O)(=O)CCN1CCc2ccc(Nc3nc4c(-c5cccc6c5OC(F)(F)O6)cccn4n3)cc2CC1 [Example 247, [8-(2,2-difluoro-1,3-benzodioxol-4-yl)-[1,2,4]triazolo[1,5-a]pyridin-2-yl]-[3-(2-methanesulfonyl-ethyl)-2,3,4,5-tetrahydro-1H-3-benzazepin-7-yl)amine] | 0.0248 µM | 2 µM |
| CN(C)C(=O)CN1CCc2ccc(Nc3nc4c(-c5cccc6c5OC(F)(F)O6)cccn4n3)cc2CC1 [Example 248, 2-(7-[8-(2,2-difluoro-1,3-benzodioxol-4-yl)-[1,2,4]triazolo[1,5-a]pyridin-2-yl-amino]-1,2,4,5-tetrahydro-3-benzazepin-3-yl)-N—N-dimethyl-acetamide] | 0.0304 µM | 1.7 µM |
| COc1ccc(C(F)(F)F)cc1-c1cccn2nc(Nc3ccc(N4CCN(C)CC4)cc3)nc12 [Example 254, [8-(2-Methoxy-5-trifluoromethyl-phenyl)-[1,2,4]triazolo[1,5-a]pyridin-2-yl]-[4-(4-methyl-piperazine-1-yl)-phenyl]-amine] | 0.0313 µM | 1.08 µM |
| COc1ccc(C(F)(F)F)cc1-c1cccn2nc(Nc3cccc(N4CCN(C)CC4)c3)nc12 [Example 255, [8-(2-Methoxy-5-trifluoromethyl-phenyl)-[1,2,4]triazolo[1,5-a]pyridin-2-yl]-[3-(4-methyl-piperazine-1-yl)-phenyl]-amine] | 0.158 µM | 1.22 µM |
| COc1ccc(C(F)(F)F)cc1-c1cccn2nc(Nc3cccc(C4CCNCC4)c3)nc12 [Example 257, [8-(2-Methoxy-5-trifluoromethyl-phenyl)-[1,2,4]triazolo[1,5-a]pyridin-2-yl]-(3-piperidin-4-yl-phenyl)-amine] | 0.0289 µM | 0.481 µM |
| COc1ccc(C(F)(F)F)cc1-c1cccn2nc(Nc3ccc(OCCN4CCOCC4)cc3)nc12 [Example 258, [8-(2-Methoxy-5-trifluoromethyl-phenyl)-[1,2,4]triazolo[1,5-a]pyridin-2-yl]-[4-(2-morpholin-4-yl-ethoxy)-phenyl]-amine] | 0.0845 µM | 6.5 µM |
| COc1ccc(C(F)(F)F)cc1-c1cccn2nc(Nc3ccc(OCCN4CCCC4)cc3)nc12 [Example 259, [8-(2-Methoxy-5-trifluoromethyl-phenyl)-[1,2,4]triazolo[1,5-a]pyridin-2-yl]-[4-(2-pyrrolidin-1-yl-ethoxy)-phenyl]-amine] | 0.0737 µM | 3.39 µM |
| CN1CCN(c2cccc(Nc3nc4c(OCc5cccc(Cl)c5)cccn4n3)c2)CC1 [Example 261, [8-(3-Chloro-benzyloxy)-[1,2,4]triazolo[1,5-a]pyridin-2-yl]-[3-(4-methyl-piperazin-1-yl)-phenyl]-amine] | 0.0995 µM | 1.59 µM |
| CN1CCN(c2ccc(Nc3nc4c(OCc5ccccc5C#N)cccn4n3)cc2)CC1 [Example 262, 2-{2-[4-(4-Methyl-piperazin-1-yl)-phenylamino]-[1,2,4]triazolo[1,5-a]pyridin-8-yloxymethyl}-benzonitrile] | 0.0151 µM | 2.56 µM |
| CC(=O)Nc1cccc(Nc2nc3c(-c4ccc(S(C)(=O)=O)cc4)cccn3n2)c1 [Example 267, N-{3-[8-(4-Methanesulfonyl-phenyl)-[1,2,4]triazolo[1,5-a]pyridin-2-ylamino]-phenyl}-acetamide] | 0.00343 µM | 10 µM |
| CS(=O)(=O)CCN1CCc2ccc(Nc3nc4c(-c5cc(C(F)(F)F)ccc5Cl)cccn4n3)cc2CC1 [Example 268, [8-(2-Chloro-5-trifluoromethyl-phenyl)-[1,2,4]triazolo[1,5-a]pyridin-2-yl]-[3-(2-methanesulfonyl-ethyl)-2,3,4,5-tetrahydro-1H-benzo[d]azopin-7-yl]-amine] | 0.0168 µM | 0.999 µM |
| COc1ncccc1-c1cccn2nc(Nc3ccc(C4CCN(C(=O)OC(C)(C)C)CC4)cc3)nc12 [Example 271] | 0.675 µM | 10 µM |

| Compound | IC50 (human JAK2) | IC50 (human FAK) |
| --- | --- | --- |
| COc1ncccc1-c1cccn2nc(Nc3ccc(C4CCNCC4)cc3)nc12 [Example 272] | 0.377 µM | 10 µM |
| COc1ncccc1-c1cccn2nc(Nc3ccc(C4CCN(CC(=O)N(C)C)CC4)cc3)nc12 [Example 273, 2-(4-{4-[8-(2-Methoxy-pyridin-3-yl)-[1,2,4]triazolo[1,5-a]pyridine-2-ylamino]-phenyl}-piperidin-1-yl)-N,N-dimethyl-acetamide] | 0.251 µM | 0.999 µM |
| COc1ncccc1-c1cccn2nc(Nc3ccc4ncccc4c3)nc12 [Example 274, [8-(2-Methoxy-pyridin-3-yl)-[1,2,4]triazolo[1,5-a]pyridine-2-yl]-quinolin-6-yl-amine] | 0.192 µM | 10 µM |
| CN(C)C(=O)CN1CCC(c2ccc(Nc3nc4c(-c5ccc[nH]c5=O)cccn4n3)cc2)CC1 [Example 275, N,N-Dimethyl-2(4-{4-[8-(2-oxo-1,2-dihydro-pyridin-3-yl)-[1,2,4]triazolo[1,5-a]pyridine-2-ylamino]-phenyl}-piperidin-1-yl)-acetamide] | 0.27 µM | 2 µM |
| COc1ncc(C(F)(F)F)cc1-c1cccn2nc(Nc3ccc(C4CCNCC4)cc3)nc12 [Example 278, [8-(2-Methoxy-5-trifluoromethyl-pyridin-3-yl)-[1,2,4]triazolo[1,5-a]pyridine-2-yl]-(4-piperidine-4-yl-phenyl)-amine] | 0.133 µM | 10 µM |
| COc1ncc(C(F)(F)F)cc1-c1cccn2nc(Nc3ccc(C4CCN(CC(=O)N(C)C)CC4)cc3)nc12 [Example 279, 2-(4-{4-[8-(2-Methoxy-5-trifluoromethyl-pyridin-3-yl)-[1,2,4]triazolo[1,5-a]pyridin-2-ylamino]-phenyl}-piperidin-1-yl)-N,N-dimethyl-acetamide] | 0.0746 µM | 10 µM |
| Fc1ccc(-n2cc(-c3cccn4nc(Nc5ccc(C6CCNCC6)cc5)nc34)cn2)cc1 [Example 282] | 0.00212 µM | 0.999 µM |
| COc1cnc(-c2cccn3nc(Nc4ccc(C5CCNCC5)cc4)nc23)cn1 [Example 285] | 0.0737 µM | 2.47 µM |
| COc1cnc(-c2cccn3nc(Nc4ccc(C5CCN(CC(=O)N(C)C)CC5)cc4)nc23)cn1 [Example 286, 2-(4-{4-[8-(5-Methoxy-pyrazin-2-yl)-[1,2,4]triazolo[1,5-a]pyridine-2-ylamino]-phenyl}-piperidin-1-yl)-N,N-dimethyl-acetamide] | 0.134 µM | 3 µM |
| CN1CCN(c2cccc(Nc3nc4c(-c5cnn(-c6ccc(F)cc6)c5)cccn4n3)c2)CC1 [Example 288, {8-[1-(4-Fluoro-phenyl)-1H-pyrazol-4-yl]-[1,2,4]triazolo[1,5-a]pyridine-2-yl}-[3-(4-methyl-piperazin-1-yl)-phenyl]-amine] | 0.00564 µM | 3 µM |
| Cc1ccc(-n2cc(-c3cccn4nc(Nc5ccc(C6CCNCC6)cc5)nc34)cn2)cc1 [Example 289, (4-Piperidin-4-yl-phenyl)-[8-(1-p-tolyl-1H-pyrazol-4-yl)-[1,2,4]triazolo[1,5-a]pyridine-2-yl]-amine] | 0.00404 µM | 2.42 µM |
| CC(C)COc1cccc(-c2cccn3nc(Nc4ccc5c(c4)CCNCC5)nc23)c1 [Example 294, [8-(3-Isobutoxy-phenyl]-[1,2,4]triazolo[1,5a]pyridine-2-yl]-(2,3,4,5-tetrahydro-benzo[d]azepin-7-yl)-amine] | 0.0326 µM | 3 µM |
| Cc1ccc(-c2cccn3nc(Nc4ccc5c(c4)CCNCC5)nc23)c(OCC(C)C)c1 [Example 296, [8-(2-Isobutoxy-4-methyl-phenyl]-[1,2,4]triazolo[1,5a]pyridine-2-yl]-(2,3,4,5-tetrahydro-benzo[d]azepin-7-yl)-amine] | 2.8 µM | 3 µM |
| Cn1ncc2c(-c3cccn4nc(Nc5ccc6c(c5)CCNCC6)nc34)cccc21 [Example 298, [8-(1-Methyl-1H-indazol-4-yl)-[1,2,4]triazolo[1,5a]pyridine-2-yl]-(2,3,4,5-tetrahydro-benzo[d]azepin-7-yl)-amine] | 0.0165 µM | 1.03 µM |
| c1ccc(-c2cccn3nc(Nc4ccc5c(c4)CCNCC5)nc23)c(OCC2CC2)c1 [Example 301, [8-(2-Cyclopropylmethoxy-phenyl]-[1,2,4]triazolo[1,5a]pyridine-2-yl]-(2,3,4,5-tetrahydro-benzo[d]azepin-7-yl)-amine] | 0.112 µM | 2.79 µM |
| Cc1ccc(OCC(C)C)c(-c2cccn3nc(Nc4ccc5c(c4)CCNCC5)nc23)c1 [Example 305, [8-(2-Isobutoxy-5-methyl-phenyl]-[1,2,4]triazolo[1,5a]pyridine-2-yl]-(2,3,4,5-tetrahydro-benzo[d]azepin-7-yl)-amine] | 3.08 µM | 10 µM |
